The IC50 is the midpoint of a concentration-inhibition curve. Low readings indicate greater potency in that assay, high ones weaker potency in that assay.

SMILES strings stand for the structures. The source made the active and inactive calls. No cut-off for these calls is given here.

The subject of one test is Candida albicans. The experiment in a line: Antifungal activity against Candida albicans by agar diffusion assay. The class given is functional, organism-based.
For the next test, the system named is P388. As to the kind of experiment: Cytotoxicity against mouse P388 cells. The class given is functional, cell-based.
A further test concerns Amorphotheca resinae. The experiment in a line: Antifungal activity against Cladosporium resinae by agar diffusion assay. The class given is functional, organism-based. For orientation: In agar diffusion tests the substance spreads into inoculated agar from a disc or well.
The subject of a further test is Escherichia coli. The experiment in a line: Antibacterial activity against Escherichia coli by agar diffusion assay. The class given is functional, organism-based.
Test [1] has as its system Trichophyton mentagrophytes. As to the kind of experiment: Antifungal activity against Trichophyton mentagrophytes by agar diffusion assay. The class given is functional, organism-based.
The subject of the next test is Bacillus subtilis. As to the kind of experiment: Antibacterial activity against Bacillus subtilis by agar diffusion assay. The class given is functional, organism-based.

In the case of `CC(=O)O[C@@H]1/C=C/[C@@](C)(O)C(=O)[C@@H](C)C/C=C/[C@H]2[C@@H]3O[C@]3(C)[C@@H](C)[C@H]3[C@H](Cc4ccccc4)NC(=O)[C@@]312` [CYTOCHALASIN Q], the outcome (in the test on Candida albicans; in the test on Amorphotheca resinae; with Escherichia coli; in test [1]; with Bacillus subtilis) was inactive. The same compound displayed an IC50 in the test on P388 of 2.4 µM.

These data come from ChEMBL document CHEMBL1141796, “Hirsutide, a cyclic tetrapeptide from a spider-derived entomopathogenic fungus, Hirsutella sp” (J Nat Prod, 2005).
